Measurements taken from ChEMBL document CHEMBL4842379 (J Med Chem, 2021).
Active and inactive are the calls of the source. The calls are words filed in the database; no cut-off is given here.

What was measured:
[1] = Reversal of resistance to paclitaxel-induced cytotoxicity in paclitaxel-resistant human SW-620/AD300 cells assessed as reduction in paclitaxel IC50 at 2 uM pre-incubated for 4 hrs followed by paclitaxel addition and measured after 72 hrs by MTT assay; assay type: functional, cell-based
[2] = biological target: Epidermal growth factor receptor (Homo sapiens, UniProt P00533, L858R); assay: Inhibition of EGFR L858R mutant (unknown origin)
Chain of Epidermal growth factor receptor (P00533 25-1210 L858R limits assumed): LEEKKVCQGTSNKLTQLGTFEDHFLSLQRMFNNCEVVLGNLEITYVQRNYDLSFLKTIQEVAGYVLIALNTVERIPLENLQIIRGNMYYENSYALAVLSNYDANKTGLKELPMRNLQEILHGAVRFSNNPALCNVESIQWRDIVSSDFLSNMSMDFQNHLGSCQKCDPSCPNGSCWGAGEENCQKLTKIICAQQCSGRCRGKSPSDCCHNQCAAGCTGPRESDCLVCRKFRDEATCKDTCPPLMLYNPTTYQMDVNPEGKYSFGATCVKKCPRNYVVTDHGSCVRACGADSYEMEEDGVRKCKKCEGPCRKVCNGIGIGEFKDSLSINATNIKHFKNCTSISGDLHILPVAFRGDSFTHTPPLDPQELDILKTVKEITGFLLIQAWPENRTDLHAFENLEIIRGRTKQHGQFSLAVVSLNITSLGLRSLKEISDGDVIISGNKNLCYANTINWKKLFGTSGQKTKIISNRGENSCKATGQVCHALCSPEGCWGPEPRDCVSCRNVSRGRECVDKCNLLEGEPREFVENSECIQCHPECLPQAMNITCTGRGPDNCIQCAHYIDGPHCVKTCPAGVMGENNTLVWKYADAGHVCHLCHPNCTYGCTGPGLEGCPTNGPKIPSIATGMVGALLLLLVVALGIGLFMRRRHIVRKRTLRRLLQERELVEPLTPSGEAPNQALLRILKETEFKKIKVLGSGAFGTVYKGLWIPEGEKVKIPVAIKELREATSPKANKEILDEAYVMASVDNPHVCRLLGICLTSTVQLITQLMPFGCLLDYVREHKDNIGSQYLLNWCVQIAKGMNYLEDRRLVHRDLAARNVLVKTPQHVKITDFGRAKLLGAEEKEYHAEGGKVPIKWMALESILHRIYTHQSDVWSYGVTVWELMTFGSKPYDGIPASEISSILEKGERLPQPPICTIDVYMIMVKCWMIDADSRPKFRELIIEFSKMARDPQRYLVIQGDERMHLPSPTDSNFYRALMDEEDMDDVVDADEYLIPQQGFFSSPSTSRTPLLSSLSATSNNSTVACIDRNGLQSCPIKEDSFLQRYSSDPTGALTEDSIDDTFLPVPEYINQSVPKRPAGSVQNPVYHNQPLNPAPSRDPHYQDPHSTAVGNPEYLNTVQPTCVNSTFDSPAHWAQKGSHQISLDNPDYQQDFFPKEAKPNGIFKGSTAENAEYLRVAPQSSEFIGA

[3] = Reversal of resistance to colchicine-induced cytotoxicity in human SW620/AD300 cells assessed as reduction in colchicine IC50 at 2 uM pre-incubated for 4 hrs followed by colchicine addition and measured after 72 hrs by MTT assay; assay type: functional, cell-based; details: SW-620
SW-620 [4] = assay: Effect on intracellular Rhodamine 123 accumulation in human SW620 cells at 0.5 to 2 uM incubated for 24 hrs by flow cytometry; assay type: functional, cell-based; details: dose 0.5-2 µM
[5] = biological target: T1, ATP-dependent translocase ABCB1 (Homo sapiens, UniProt P08183); assay: Inhibition of P-gp in paclitaxel-resistant human SW620/AD300 cells assessed as accumulation of paclitaxel incubated for 24 hrs by HPLC analysis; assay type: cell-based; details: sw-620, 24 h
T1 sequence (P08183 whole entry): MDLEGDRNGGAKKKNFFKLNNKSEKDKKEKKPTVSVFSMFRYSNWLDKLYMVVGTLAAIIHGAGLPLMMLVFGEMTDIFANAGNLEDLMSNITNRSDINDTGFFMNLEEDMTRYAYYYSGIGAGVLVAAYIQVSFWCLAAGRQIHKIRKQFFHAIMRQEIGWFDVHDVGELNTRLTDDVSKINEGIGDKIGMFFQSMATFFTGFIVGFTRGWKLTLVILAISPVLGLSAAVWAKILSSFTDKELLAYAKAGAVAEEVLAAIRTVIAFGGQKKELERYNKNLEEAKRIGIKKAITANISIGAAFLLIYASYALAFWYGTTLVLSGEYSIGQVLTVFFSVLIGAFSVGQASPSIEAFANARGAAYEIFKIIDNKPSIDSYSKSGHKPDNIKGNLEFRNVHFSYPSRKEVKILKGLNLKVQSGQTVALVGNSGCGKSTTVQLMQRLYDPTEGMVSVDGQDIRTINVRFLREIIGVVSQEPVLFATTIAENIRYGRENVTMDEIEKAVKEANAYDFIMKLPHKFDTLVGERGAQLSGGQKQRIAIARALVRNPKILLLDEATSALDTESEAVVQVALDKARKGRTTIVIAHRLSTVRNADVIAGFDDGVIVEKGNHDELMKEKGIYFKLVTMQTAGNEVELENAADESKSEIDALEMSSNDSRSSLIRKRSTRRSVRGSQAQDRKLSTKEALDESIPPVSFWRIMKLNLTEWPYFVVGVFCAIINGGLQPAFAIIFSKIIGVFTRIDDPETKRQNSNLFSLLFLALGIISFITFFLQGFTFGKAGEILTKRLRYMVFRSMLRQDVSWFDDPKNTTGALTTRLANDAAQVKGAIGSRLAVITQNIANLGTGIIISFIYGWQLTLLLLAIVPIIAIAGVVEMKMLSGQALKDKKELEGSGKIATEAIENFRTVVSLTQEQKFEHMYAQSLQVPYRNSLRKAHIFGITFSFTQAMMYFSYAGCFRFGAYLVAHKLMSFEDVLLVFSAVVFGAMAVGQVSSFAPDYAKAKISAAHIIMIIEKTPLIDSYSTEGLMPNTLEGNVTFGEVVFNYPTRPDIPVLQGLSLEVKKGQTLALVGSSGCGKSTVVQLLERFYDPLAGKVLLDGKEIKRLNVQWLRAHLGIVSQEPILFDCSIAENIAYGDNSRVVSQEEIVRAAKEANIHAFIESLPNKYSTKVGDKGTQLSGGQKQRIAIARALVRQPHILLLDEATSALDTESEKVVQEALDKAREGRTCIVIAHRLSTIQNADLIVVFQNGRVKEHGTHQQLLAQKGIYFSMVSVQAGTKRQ

[6] = Reversal of resistance to paclitaxel-induced cytotoxicity in human SW620/AD300 cells assessed as reduction in paclitaxel IC50 at 0.5 uM pre-incubated for 4 hrs followed by paclitaxel addition and measured after 72 hrs by MTT assay; assay type: functional, cell-based; details: SW-620
[7] = Reversal of resistance to paclitaxel-induced cytotoxicity in human SW620/AD300 cells assessed as reduction in paclitaxel IC50 at 1 uM pre-incubated for 4 hrs followed by paclitaxel addition and measured after 72 hrs by MTT assay; assay type: functional, cell-based; details: SW-620
[8] = Reversal of resistance to colchicine-induced cytotoxicity in human SW620/AD300 cells assessed as reduction in colchicine IC50 at 0.5 uM pre-incubated for 4 hrs followed by colchicine addition and measured after 72 hrs by MTT assay; assay type: functional, cell-based; details: SW-620
[9] = Reversal of resistance to colchicine-induced cytotoxicity in human SW620/AD300 cells assessed as reduction in colchicine IC50 at 1 uM pre-incubated for 4 hrs followed by colchicine addition and measured after 72 hrs by MTT assay; assay type: functional, cell-based; details: SW-620
SW-620 [10] = assay: Reduction in P-gp expression in paclitaxel-resistant human SW620/AD300 cells measured after 72 hrs by Western blotting analysis; assay type: functional, cell-based
SW-620 [11] = assay: Effect on P-gp subcellular localization in paclitaxel-resistant human SW620/AD300 cells measured after 72 hrs by Hoechst 33258 staining based immunocytochemistry analysis; assay type: functional, cell-based
[12] = biological target: T1, ATP-dependent translocase ABCB1; assay: Inhibition of P-gp in paclitaxel-resistant human SW620/AD300 cells assessed as rescue of intracellular Rhodamine 123 accumulation incubated for 24 hrs by flow cytometry; assay type: cell-based; details: sw-620, 24 h, dose 0.5-2 µM
[13] = biological target: T1, ATP-dependent translocase ABCB1; assay: Stabilization of P-gp in paclitaxel-resistant human SW620/AD300 cells at higher temperature incubated for 30 mins by Western blot based cellular thermal shift assay; assay type: cell-based; details: sw-620, 0.5 h
[14] = biological target: T1, ATP-dependent translocase ABCB1; assay: Inhibition of recombinant human P-gp ATPase activity incubated for 60 mins by luminescence based Glo assay
Cytochrome P450 3A4 = Cytochrome P450 3A4 (Homo sapiens, UniProt P08684); assay: Inhibition of human recombinant CYP3A4 by fluorescence assay; assay type: ADME
Chain of Cytochrome P450 3A4 (P08684 whole entry): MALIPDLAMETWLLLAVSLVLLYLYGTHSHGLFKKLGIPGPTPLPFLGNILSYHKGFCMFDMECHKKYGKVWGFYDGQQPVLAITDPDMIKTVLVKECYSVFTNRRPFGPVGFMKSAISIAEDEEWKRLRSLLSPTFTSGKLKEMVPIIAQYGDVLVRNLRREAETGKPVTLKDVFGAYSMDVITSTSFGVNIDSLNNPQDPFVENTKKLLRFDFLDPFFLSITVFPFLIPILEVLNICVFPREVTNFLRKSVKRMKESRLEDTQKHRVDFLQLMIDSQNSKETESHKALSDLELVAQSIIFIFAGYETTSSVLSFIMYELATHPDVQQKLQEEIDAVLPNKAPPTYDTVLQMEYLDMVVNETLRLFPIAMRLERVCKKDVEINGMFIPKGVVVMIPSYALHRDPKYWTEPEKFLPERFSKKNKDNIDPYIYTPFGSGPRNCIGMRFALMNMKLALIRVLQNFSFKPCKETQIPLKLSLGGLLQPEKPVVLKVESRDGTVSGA

SW-620 [15] = assay: In vivo antitumor activity against paclitaxel-resistant human SW620/AD300 cells xenografted in mouse assessed as reduction in tumor volume at 20 mg/kg, po in presence of 5 mg/kg paclitaxel treated for 3 days measured for 19 days; assay type: functional, organism-based; details: time 19.0 day
[16] = Toxicity in mouse xenografted with paclitaxel-resistant human SW620/AD300 cells assessed as change in body weight at 20 mg/kg, po in presence of 5 mg/kg paclitaxel treated for 3 days measured for 19 days; assay type: organism-based; details: in vivo, 456 h, time 19 day
[17] = Toxicity in mouse xenografted with paclitaxel-resistant human SW620/AD300 cells assessed as change in body weight at 20 mg/kg, po measured for 19 days; assay type: organism-based; details: in vivo, 456 h, time 19 day
[18] = Cytotoxicity against paclitaxel-resistant human SW620/AD300 cells measured after 72 hrs by MTT assay; assay type: functional, cell-based; details: SW-620, 72 h
HEK-293T = assay: Cytotoxicity against human HEK293T cells expressing ABCB1 (unknown origin) measured after 72 hrs by MTT assay; assay type: functional, cell-based

Row | SMILES | Paclitaxel IC50 in presence of compound at 2 uM [1] | also measured
1 | CCn1c(-c2ccccc2)c(-c2ncnc3cc(OC)c(OCCCN4CCOCC4)cc23)c2ccccc21 | 700 nM | IC50 [2]: 1.3 nM
2 | COc1cc2ncnc(-c3c(-c4cccc(F)c4)[nH]c4ccccc34)c2cc1OCCCN1CCOCC1 | 800 nM | –
3 | COc1cc2ncnc(-c3cn(Cc4ccccc4Cl)c4ccccc34)c2cc1OCCCN1CCOCC1 | 20 nM | –
4 | COc1cc2ncnc(-c3c(-c4ccc(Cl)cc4)[nH]c4ccccc34)c2cc1OCCCN1CCOCC1 | 20 nM | –
5 | COc1ccc(CCN(C)CCCC(C#N)(c2ccc(OC)c(OC)c2)C(C)C)cc1OC (configuration not stated) | – | IC50 [3]: 20600 nM; Activity (SW-620 [4]): inactive; Activity [5]: Dose-Dependent Effect
6 | COc1cc2ncnc(-c3c(-c4ccccc4)n(C)c4ccccc34)c2cc1OCCCN1CCOCC1 | 100 nM | –
7 | COc1cc2ncnc(-c3c(-c4ccc(F)cc4)[nH]c4ccccc34)c2cc1OCCCN1CCOCC1 | 300 nM | –
8 | COc1cc2ncnc(-c3cn(Cc4ccccc4)c4cccc(OC)c34)c2cc1OCCCN1CCOCC1 | 1000 nM | –
9 | COc1cc2ncnc(-c3c(-c4ccc(C)cc4)[nH]c4ccccc34)c2cc1OCCCN1CCOCC1 | 300 nM | –
10 | COc1cc2ncnc(-c3c(-c4cccc(C)c4)[nH]c4ccccc34)c2cc1OCCCN1CCOCC1 | 400 nM | –
11 | COc1cc2ncnc(-c3c(-c4ccccc4)n(Cc4cccc(Br)c4)c4ccccc34)c2cc1OCCCN1CCOCC1 | 20 nM | –
12 | COc1cc2ncnc(-c3c(-c4ccc(C(F)(F)F)cc4)[nH]c4ccccc34)c2cc1OCCCN1CCOCC1 | 700 nM | –
13 | CCn1c(-c2ccccc2)c(-c2ncnc3cc(OCCOC)c(OCCOC)cc23)c2ccccc21 | 800 nM | –
14 | C=CCn1c(-c2ccccc2)c(-c2ncnc3cc(OC)c(OCCCN4CCOCC4)cc23)c2ccccc21 | 2300 nM | –
15 | CCn1c(-c2ccccc2)c(-c2ncnc3ccccc23)c2ccccc21 | 2200 nM | –
16 | CCCCn1cc(-c2ncnc3cc(OC)c(OCCCN4CCOCC4)cc23)c2ccccc21 | 400 nM | –
17 | COc1cc2ncnc(-c3c(-c4cccc(Cl)c4)[nH]c4ccccc34)c2cc1OCCCN1CCOCC1 | 200 nM | –
18 | COc1cc2ncnc(-c3c(-c4ccccc4)n(Cc4ccccc4Br)c4ccccc34)c2cc1OCCCN1CCOCC1 | – | IC50 [6]: 100 nM; IC50 [7]: 20 nM; IC50 [8]: 26500 nM; IC50 [9]: 17200 nM; IC50 [3]: 6200 nM; Activity (SW-620 [10]): inactive; Activity (SW-620 [11]): inactive; Activity [12]: Dose-Dependent Effect; Activity (SW-620 [4]): inactive; Activity [5]: Dose-Dependent Effect; Activity [13]: Dose-Dependent Effect; IC50 [14]: 5100 nM; Activity ([14]; human, 1 h, time 60 min): Dose-Dependent Effect; IC50 (Cytochrome P450 3A4): 4100 nM; Activity (SW-620 [15]): Active; Activity [16]: Non-Toxic; Activity [17]: Non-Toxic
19 | C#CCn1c(-c2ccccc2)c(-c2ncnc3cc(OC)c(OCCCN4CCOCC4)cc23)c2ccccc21 | 2200 nM | –
20 | CCc1ccc(-c2[nH]c3ccccc3c2-c2ncnc3cc(OC)c(OCCCN4CCOCC4)cc23)cc1 | 70 nM | –
21 | CC(=O)O[C@H]1C(=O)[C@@]2(C)[C@H]([C@H](OC(=O)c3ccccc3)[C@]3(O)C[C@H](OC(=O)[C@H](O)[C@@H](NC(=O)c4ccccc4)c4ccccc4)C(C)=C1C3(C)C)[C@]1(OC(C)=O)CO[C@@H]1C[C@@H]2O [PACLITAXEL] | – | IC50 [18]: 2300 nM; IC50 (HEK-293T): 36400 nM
22 | COc1cc2ncnc(-c3c(-c4cccc(Br)c4)[nH]c4ccccc34)c2cc1OCCCN1CCOCC1 | 3000 nM | –
23 | COc1cc2ncnc(-c3c(-c4ccc(C(C)C)cc4)[nH]c4ccccc34)c2cc1OCCCN1CCOCC1 | 300 nM | –

Row | SMILES | Paclitaxel IC50 in presence of compound at 2 uM [1] | also measured
24 | CCn1c(-c2ccccc2)c(-c2ncnc3ccc(Br)cc23)c2ccccc21 | 2200 nM | –
25 | COc1cc2ncnc(-c3c(-c4ccccc4)n(Cc4ccc(Cl)cc4)c4ccccc34)c2cc1OCCCN1CCOCC1 | 7 nM | –
26 | COc1ccc2c(-c3ncnc4cc(OC)c(OCCCN5CCOCC5)cc34)cn(Cc3ccccc3)c2c1 | 100 nM | –
27 | CCCCc1ccc(-c2[nH]c3ccccc3c2-c2ncnc3cc(OC)c(OCCCN4CCOCC4)cc23)cc1 | 100 nM | –
28 | COc1cc2ncnc(-c3c(-c4ccccc4)n(Cc4cccc(C(F)(F)F)c4)c4ccccc34)c2cc1OCCCN1CCOCC1 | 20 nM | –
29 | COc1cc2ncnc(-c3cn(Cc4ccccc4)c4ccccc34)c2cc1OCCCN1CCOCC1 | 50 nM | –
30 | COc1cc2ncnc(-c3c(-c4ccc(Br)cc4)[nH]c4ccccc34)c2cc1OCCCN1CCOCC1 | 200 nM | –
31 | CCn1c(-c2ccccc2)c(-c2nc(-c3ccccc3)nc3ccccc23)c2ccccc21 | 1200 nM | –
32 | COc1cc2ncnc(-c3c(-c4cccc([N+](=O)[O-])c4)[nH]c4ccccc34)c2cc1OCCCN1CCOCC1 | 600 nM | –
33 | COc1cc2c(c(OC)c1OC)-c1ccc(OC)c(=O)cc1[C@@H](NC(C)=O)CC2 [COLCHICINE] | – | IC50 [18]: 62500 nM; IC50 (HEK-293T): 801000 nM
34 | COc1cc2ncnc(-c3c(-c4ccc(-c5ccccc5)cc4)[nH]c4ccccc34)c2cc1OCCCN1CCOCC1 | 20 nM | –
35 | COc1cc2ncnc(-c3cn(Cc4cccc(C)c4)c4ccccc34)c2cc1OCCCN1CCOCC1 | 30 nM | –
36 | COc1cc2ncnc(-c3c(-c4ccccc4)n(CCCc4ccccc4)c4ccccc34)c2cc1OCCCN1CCOCC1 | 6 nM | –
37 | COc1ccc2c(c1)c(-c1ncnc3cc(OC)c(OCCCN4CCOCC4)cc13)cn2Cc1ccccc1 | 200 nM | –
38 | COc1cc2ncnc(-c3c(-c4ccccc4)n(Cc4cccc(Cl)c4)c4ccccc34)c2cc1OCCCN1CCOCC1 | 20 nM | –
39 | COc1cc2ncnc(-c3c(CCc4ccccc4)[nH]c4ccccc34)c2cc1OCCCN1CCOCC1 | 200 nM | –
40 | COc1cc2ncnc(-c3c(-c4ccccc4)[nH]c4ccccc34)c2cc1OCCCN1CCOCC1 | 800 nM | –
41 | COc1cc2ncnc(-c3c(-c4ccccc4F)[nH]c4ccccc34)c2cc1OCCCN1CCOCC1 | 500 nM | –
42 | COc1cc2ncnc(-c3cn(Cc4ccc(C#N)cc4)c4ccccc34)c2cc1OCCCN1CCOCC1 | 200 nM | –
43 | COc1cc2ncnc(-c3c(-c4ccc5ccccc5c4)[nH]c4ccccc34)c2cc1OCCCN1CCOCC1 | 40 nM | –
44 | CCn1cc(-c2ncnc3cc(OC)c(OCCCN4CCOCC4)cc23)c2ccccc21 | 300 nM | –
45 | COc1cc2ncnc(-c3c(Cc4ccccc4)[nH]c4ccccc34)c2cc1OCCCN1CCOCC1 | 2000 nM | –
46 | CCn1c(-c2ccccc2)c(-c2ncnc3cc(OC)c(OC)cc23)c2ccccc21 | 1600 nM | –
